The values that follow come from patent publication US9790173B2, “Alpha-7 nicotinic acetylcholine receptor modulators and uses thereof-I” (MERCK SHARP & DOHME CORP., priority 2012, dated 2017).

This assay has as its target T1, rat α7 nAChRs (Rattus norvegicus, UniProt Q05941).
T1 construct: expressed in transfected cells; host or cells: GH4C1 cells (rat pituitary line) stably expressing α7 nAChR
The assay is described as follows: Automated planar patch clamp (Patchliner) electrophysiology, α7 nAChR PAM activity. It is filed as cell-based. On the set-up: key to Type I or Type II: I: Type 1 predominately affects the peak current; Type II modulators affect the peak current and also delay the desensitization of the receptor. The conditions noted are these: for Type I or Type II: modulator type based on the electrophysiology trace; for activation at 3 µM: GH4-C1, 3 μM compound in the presence of acetylcholine, GH4C1 cells expressing rat α7 nAChRs, peak current, read-out: Peak potentiation at 3 μM compound. The protocol:
Tested compounds were prepared by serial dilutions of 10 mM stock solution in DMSO to concentrations of the compound 1000 times higher than its final concentration. The DMSO stock solutions were then diluted 1:100 in the recording buffer bringing DMSO concentration to 1%. These intermediate solutions were further diluted 10 times with buffer to obtain final concentrations and lower DMSO concentration to 0.1%. […]
Compounds of the invention may be evaluated by electrophysiology using a Patchliner® (Nanion Technologies GmbH, Germany), an automated planar patch-clamp platform of medium throughput was used as a first step in electrophysiological assessment of α7 nAChR positive allosteric modulators (PAMs).
Briefly, intracellular (KCl—50 mM, NaCl—10 mM, KF—60 mM, EGTA—20 mM, HEPES—10 mM, pH—7.2, 285 mOsmol) and extracellular (NaCl—140 mM, KCl—4 mM, CaCl2—2 mM, MgCl2—1 mM, HEPES—10 mM, D-Glucose—5 mM, pH—7.4, 298 mOsmol) solutions were automatically pipetted onto NPC-16 chip (medium resistance ˜2.5-2.6 MΩ). Suspension of GH4C1 cells expressing rat α7 nAChRs was introduced in 4 wells of a medium resistance chip and suction was applied to attract cells in the holes. The extracellular solution was subsequently exchanged to high calcium solution (NaCl—80 mM, KCl—3 mM, CaCl2—45 mM, HEPES—10 mM, pH—7.4, 298 mOsmol) followed by gigaohm seal formation and obtaining whole-cell configuration. The rest of protocol was carried out in the high-calcium recording solution. Holding potential was −70 mV throughout the protocol. A control response to 60 or 100 μM of ACh was obtained first. Next, a cell was pre-incubated with compound of interest at 3 μM for ˜30 s after which the compound was co-applied with acetylcholine.
Amplitude of the responses was measured in HEKA Patchmaster software (HEKA Elektronik, Germany) and percentage of potentiation calculated. Recording was repeated […] a minimum of two replicates had been obtained per compound.
Compounds shown in Table 1 were evaluated by automated planar patch clamp on the Patchliner® as described in Example P2.1. […] The compounds are designated either as Type I or Type II modulators based on the electrophysiology trace. Type 1 predominately affects the peak current. Type II modulators affect the peak current and also delay the desensitization of the receptor.

SMILES strings stand for the structures.

T1 sequence (Q05941 23-502): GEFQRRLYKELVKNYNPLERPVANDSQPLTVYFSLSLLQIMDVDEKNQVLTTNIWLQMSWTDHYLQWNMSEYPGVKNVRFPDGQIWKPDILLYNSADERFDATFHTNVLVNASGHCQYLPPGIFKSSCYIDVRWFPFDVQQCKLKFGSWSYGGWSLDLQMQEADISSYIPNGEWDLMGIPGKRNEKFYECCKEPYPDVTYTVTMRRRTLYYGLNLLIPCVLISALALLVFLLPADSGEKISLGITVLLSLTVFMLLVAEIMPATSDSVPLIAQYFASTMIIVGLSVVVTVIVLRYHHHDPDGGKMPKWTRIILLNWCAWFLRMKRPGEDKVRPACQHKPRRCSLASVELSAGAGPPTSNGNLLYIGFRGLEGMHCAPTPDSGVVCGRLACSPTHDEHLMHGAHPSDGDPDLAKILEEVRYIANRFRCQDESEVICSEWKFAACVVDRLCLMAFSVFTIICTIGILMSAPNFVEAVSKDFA

For `CC1(C)C(c2ccc(S(N)(=O)=O)cc2)[C@H]1CNc1ccc(F)c(C(F)(F)F)c1` (mixture of isomers) [Example 33, ±trans 4-[3-({[4-fluoro-3-(trifluoromethyl)phenyl]amino}methyl)-2,2-dimethylcyclopropyl]benzenesulfonamide], the “Type I or Type II” value was “II”.

Turning to `CC1(C)C(c2ccc(S(N)(=O)=O)cc2)[C@H]1CNc1ccc(F)cc1OC(F)F` (mixture of isomers) [Example 34, ±trans 4-[3-({[2-(difluoromethoxy)-4-fluorophenyl]amino}methyl)-2,2-dimethylcyclopropyl]benzenesulfonamide], the “Type I or Type II” value was “II”.

In the case of `CC(C)(C)c1cc(NC[C@@H]2C(c3ccc(S(N)(=O)=O)cc3)C2(C)C)no1` (mixture of isomers) [Example 35, ±trans 4-(3-{[(5-tert-butyl-1,2-oxazol-3-yl)amino]methyl)}2,2-dimethylcyclopropyl)benzenesulfonamide], the activation at 3 µM is 57% and the “Type I or Type II” value is reported as “II”.

Regarding `Cc1cc(F)ccc1NC[C@@H]1[C@@H](c2ccc(S(N)(=O)=O)cc2)C1(C)C` (racemic) [Example 38, ±trans 4-[-3-{[(4-fluoro-2-methylphenyl)amino]methyl}-2,2-dimethylcyclopropyl]benzenesulfonamide], the “Type I or Type II” value is on record as “II”.

On to `COc1ccc(Cl)cc1NC[C@@H]1[C@@H](c2ccc(NS(C)(=O)=O)cc2)C1(C)C` (racemic) [Example 46, ±trans N-{4-[3-{[(5-chloro-2-methoxyphenyl)amino]methyl}-2,2-dimethylcyclopropyl]phenyl}methanesulfonamide], for which the activation at 3 µM turned out to be 783% and the “Type I or Type II” value is on record as “I”.

Consider `COc1ccc(Cl)cc1NC[C@@H]1[C@@H](c2ccc(NS(N)(=O)=O)cc2)C1(C)C` (racemic) [Example 59, ±trans N-[4-(3-{[(5-chloro-2-methoxyphenyl)amino]methyl}-2,2-dimethylcyclopropyl)phenyl]sulfuric diamide], for which the “Type I or Type II” value was “I”.

As for `CC1(C)[C@H](CNC2CCCCC2(F)F)[C@H]1c1ccc(S(N)(=O)=O)cc1` (relative stereo) [Example 62, trans 4-(3-{[(2,2-difluorocyclohexyl)amino]methyl}-2,2-dimethylcyclopropyl)benzenesulfonamide], the activation at 3 µM was determined as 38% and the “Type I or Type II” value was “II”.

In the case of `COc1ccc(Cl)cc1NC[C@@H]1[C@@H](c2ccc(NS(C)(=O)=O)cc2)C1(C)C` (single isomer, unassigned; enantiomer a) [Example 47], the activation at 3 µM amounted to 867% and the “Type I or Type II” value is listed as “I”.

Consider `Cc1cc(F)ccc1NC[C@@H]1[C@@H](c2ccc(S(N)(=O)=O)cc2)C1(C)C` (single isomer, unassigned; enantiomer a) [Example 57, Enantiomer A of trans 4-[3-{[(4-fluoro-2-methylphenyl)amino]methyl}-2,2-dimethylcyclopropyl]benzenesulfonamide], for which the activation at 3 µM came out at 473% and the “Type I or Type II” value is given as “I”.

For `Cc1cc(F)ccc1NC[C@H]1[C@H](c2ccc(S(N)(=O)=O)cc2)C1(C)C` (single isomer, unassigned; enantiomer b) [Example 58, Enantiomer B of trans 4-[3-{[(4-fluoro-2-methylphenyl)amino]methyl}-2,2-dimethylcyclopropyl]benzenesulfonamide], the “Type I or Type II” value is recorded as “II”.

As for `NS(=O)(=O)c1ccc([C@@H]2C[C@H]2CNc2cc(F)ccc2OC(F)(F)F)cc1` (stereo in doubt) [Example 53, 4-[(1R,2R)-2-({[5-fluoro-2-(trifluoromethoxy)phenyl]amino}methyl)cyclopropyl]benzenesulfonamide], the “Type I or Type II” value is “II”.

Turning to `COc1ccc(Cl)cc1NC[C@H]1C[C@@H]1c1ccc(S(N)(=O)=O)cc1` [Example 1, ±trans 4-(2-{[(5-chloro-2-methoxyphenyl)amino]methyl}cyclopropyl)benzenesulfonamide], the “Type I or Type II” value is recorded as “II”.

For the molecule `NS(=O)(=O)c1ccc([C@H]2C[C@@H]2CNc2ccc(F)c(F)c2)cc1` [Example 2, ±trans 4-(2-{[(3,4-difluorophenyl)amino]methyl}cyclopropyl)benzenesulfonamide], the “Type I or Type II” value is on record as “II”.

Consider `COc1ccc(Cl)cc1NC[C@@H]1[C@@H](c2ccc(S(N)(=O)=O)cc2)C1(C)C` [Example 4, ±trans 4-(3-{[(5-chloro-2-methoxyphenyl)amino]methyl}-2,2-dimethylcyclopropyl)benzenesulfonamide], for which the “Type I or Type II” value was “II”.

As to `CC1(C)[C@H](CNc2ccccc2)[C@H]1c1ccc(S(N)(=O)=O)cc1` [Example 5, ±trans 4-{2,2-dimethyl-3-[(phenylamino)methyl]cyclopropyl}benzenesulfonamide], the “Type I or Type II” value is recorded as “II”.

For the molecule `CN(C[C@@H]1[C@@H](c2ccc(S(N)(=O)=O)cc2)C1(C)C)c1ccccc1` [Example 6, ±trans 4-(2,2-dimethyl-{[methyl(phenyl)amino]methyl}cyclopropyl)benzenesulfonamide], the activation at 3 µM worked out at 506% and the “Type I or Type II” value is recorded as “I”.

Regarding `COc1ccc(Cl)cc1N(C)C[C@@H]1[C@@H](c2ccc(S(N)(=O)=O)cc2)C1(C)C` [Example 7, ±trans 4-(3-{[(5-chloro-2-methoxyphenyl)(methyl)amino]methyl}-2,2-dimethylcyclopropyl)benzenesulfonamide], the activation at 3 µM is 134% and the “Type I or Type II” value is listed as “I”.

For the molecule `COc1ccc(Cl)cc1NC[C@@H]1[C@@H](c2ccc(S(N)(=O)=O)cc2)C12CCCC2` [Example 8, ±trans 4-(2-{[(5-chloro-2-methoxyphenyl)amino]methyl}spiro[2.4]hept-1-yl)benzenesulfonamide], the “Type I or Type II” value is “II”.

As for `CC1(C)[C@H](CNc2cncc(F)c2)[C@H]1c1ccc(S(N)(=O)=O)cc1` [Example 10, ±trans 4-[3-{[(5-fluoropyridin-3-yl)amino]methyl}-2,2-dimethylcyclopropyl]benzenesulfonamide], the “Type I or Type II” value is given as “II”.

On to `CC1(C)[C@H](CNc2ccnc(C(F)(F)F)c2)[C@H]1c1ccc(S(N)(=O)=O)cc1` [Example 11, ±trans 4-[2,2-dimethyl-3-({[2-(trifluoromethyl)pyridin-4-yl]amino}methyl)cyclopropyl]benzenesulfonamide], for which the activation at 3 µM was 15% and the “Type I or Type II” value is reported as “II”.

For the molecule `NS(=O)(=O)c1ccc([C@H]2C[C@@H]2CNc2ccc(C(F)(F)F)cn2)cc1` [Example 12, ±trans 4-[2-({[5-(trifluoromethyl)pyridin-2-yl]amino}methyl)cyclopropyl]benzenesulfonamide], the activation at 3 µM worked out at 401% and the “Type I or Type II” value is “I”.

Consider `CC1(C)[C@H](CNc2ccc(F)c(F)c2)[C@H]1c1ccc(S(N)(=O)=O)cc1` [Example 14, ±trans 4-[3-{[(3,4-difluorophenyl)amino]methyl}-2,2-dimethylcyclopropyl]benzenesulfonamide], for which the “Type I or Type II” value was “II”.

With `CC1(C)[C@H](CNc2ccc(F)cc2C(F)(F)F)[C@H]1c1ccc(S(N)(=O)=O)cc1` [Example 15, 4-[(1R,3R)-3-({[4-fluoro-2-(trifluoromethyl)phenyl]amino}methyl)-2,2-dimethylcyclopropyl]benzenesulfonamide], the activation at 3 µM worked out at 413% and the “Type I or Type II” value is “I”.

Consider `CC1(C)[C@H](CNc2cc(F)ccc2OCC(F)(F)F)[C@H]1c1ccc(S(N)(=O)=O)cc1` [Example 16, 4-[(1R,3R)-3-({[5-fluoro-2-(2,2,2-trifluoroethoxy)phenyl]amino}methyl)-2,2-dimethylcyclopropyl]benzenesulfonamide], for which the activation at 3 µM is 236% and the “Type I or Type II” value was “I”.

For the molecule `NS(=O)(=O)c1ccc([C@@H]2C[C@H]2CNc2ccc(F)cc2)cc1` [Example 18, 4-[(1R,2R)-2-{[(4-fluorophenyl)amino]methyl}cyclopropyl]benzenesulfonamide], the “Type I or Type II” value was “I”.

Take `NS(=O)(=O)c1ccc([C@@H]2C[C@H]2CNc2ccc(C(F)(F)F)cn2)cc1` [Example 19, 4-[(1R,2R)-2-({[5-(trifluoromethyl)pyridin-2-yl]amino}methyl)cyclopropyl]benzenesulfonamide]: the activation at 3 µM is 762% and the “Type I or Type II” value is listed as “I”.
